From patent US9518000B2, “Bicyclo [2.2.1] acid GPR120 modulators” (BRISTOL-MYERS SQUIBB COMPANY, priority 2013, dated 2016)

Legend:
human GPR120 = human GPR120 (Homo sapiens (Human), UniProt Q5NUL3); assay: GPR120 pERK AlphaScreen SureFire Assay (human GPR120 pERK assay); assay type: cell-based; settings: CHOA12 or CHO-K1 cells stably transfected with the short form of human GPR120 receptor; phosphorylated ERK; read-out: EC50 values measured in the human GPR120 pERK assay
Outline: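 CHO cells (CHOA12 or CHO-K1) stably expressing short-form human GPR120 were serum-starved for 2 h, then exposed to compound for 7 min at 37 °C over an 11-point range of 33.33 μM–0.56 nM final. ERK phosphorylation was read by AlphaScreen SureFire and normalised to DMSO and to 50 μM linolenic acid. EC50 was derived from a 4-parameter logistic fit.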

C57BL/6 mice = assay: Acute Oral Glucose Tolerance Test; assay type: in vivo; settings: oral glucose tolerance test in mice at dose of 30 mg/kg; AUC t=0-120 min compared to vehicle
Description: In Vivo GPR120 Assays 1) Acute Oral Glucose Tolerance Test
C57BL/6 mice were housed individually and fed a standard rodent chow diet. At approximately 11 weeks age, after a 5 h fast, these mice were orally treated with vehicle or test compounds 60 min before a glucose challenge (2 g/kg). Blood glucose levels were determined from tail bleeds taken at −60, 0, 15, 30, 60 and 120 min after the glucose challenge. The blood glucose excursion profile from t=0-120 min was used to calculate an area under the curve (AUC) for compound treatment. This AUC for compound treatment is compared to vehicle treatment.

Sequence of human GPR120 (Q5NUL3 whole entry): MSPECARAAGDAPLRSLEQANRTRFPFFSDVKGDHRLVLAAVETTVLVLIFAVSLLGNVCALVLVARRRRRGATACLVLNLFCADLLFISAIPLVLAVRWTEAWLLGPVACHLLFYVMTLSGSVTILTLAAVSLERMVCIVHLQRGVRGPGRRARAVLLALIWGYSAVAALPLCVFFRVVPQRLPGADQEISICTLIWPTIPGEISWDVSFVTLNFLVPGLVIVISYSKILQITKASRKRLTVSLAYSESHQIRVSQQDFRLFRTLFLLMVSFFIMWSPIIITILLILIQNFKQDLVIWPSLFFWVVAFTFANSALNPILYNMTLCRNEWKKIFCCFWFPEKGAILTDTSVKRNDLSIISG

SMILES | EC50 (human GPR120) [nM] | reduced glucose AUC levels (C57BL/6 mice) [%]
O=C(O)COCC12CCC(OCc3cc(F)cc(Oc4ccccc4)c3)(CC1)C2 [Example 73, 2-((4-(3-fluoro-5-phenoxybenzyloxy)bicyclo [2.2.1]heptan-1-yl)methoxy) acetic acid] | 1620 | 21
O=C(O)[C@H]1C[C@@H]1CC12CCC(OCc3cc(F)cc(Oc4ccccc4)c3)(CC1)C2 (single isomer, unassigned) [Example 92] | 600 | 25
